Laboratory results taken from US10155738B2, “Methods for skin whitening using a gallotannin” (RHODE ISLAND BOARD OF EDUCATION, STATE OF RHODE ISLAND & …, priority 2014, dated 2018).
Blank lines part the entries; values can stand above or below the compound they belong to.

What was measured:
mushroom tyrosinase = assay: Tyrosinase enzyme inhibition assay; assay type: biochemical; details: pure compounds; mean ± S.D., triplicate independent experiments
Experimental: Maplifa was prepared by new methods developed in the laboratory. Briefly, leaves of red maple were dried and macerated in aqueous ethanol to obtain the crude extract which was then further purified on a resin column to remove chlorophyll and other plant pigments.

B16F10 cells [1] = assay: MTS cell viability assay; assay type: cell-based, murine; details: 72 h; for B16F10 cell viability: vs untreated control
Experimental: To further investigate the anti-melanogenic activities of ginnalinginnalins A-C, present in the Maplifa extract, cellular based assay were employed to measure the melanin content on murine melanoma B16F10 cells. In order to determine the non-toxic concentrations of ginnalinginnalins for cellular assays, cell viability on B16F10 cells were first evaluated by using MTS assay. The MTS assay was carried out as described previously with modifications. At the end of either 24, 48 or 72 h of treatment with test samples (in the concentration range of 1-100 μM for purified gallotannins and 6.25-200 μg/mL for Maplifa extract), 20 μL of the MTS reagent, in combination with the electron coupling agent, phenazine menthosulfate, were added to the wells and cells were incubated at 37° C. in a humidified incubator for 3 h. Absorbance at 490 nm was monitored with a spectrophotometer (SpectraMax M2, Molecular Devices Corp., operated by SoftmaxPro v.4.6 software, CA, USA) to obtain the number of cells relative to control populations. […] Data was presented as mean values±S.D. and were obtained from three separate experiments. Two-tailed unpaired student's t-test was used for statistical analysis of the data using the Office Excel 2010 software. A p value <0.05 was considered significant.
Murine melanoma B16F10 was purchased from the American Type Culture Collection (Rockville, Md.). Cells were cultured in Dulbecco's Modified Eagle Medium (DMEM) medium (Wilkem Scientific, R.I.) that was supplemented with 10% v/v fetal bovine serum, 1% v/v nonessential amino acids and 1% v/v antibiotic solution at 37° C. in 5% CO2. Samples were dissolved at a concentration of 50 mg/mL in dimethylsulfoxide (DMSO) as stock solution and then diluted to the desired final concentrations with growth medium. […]
Melanoma B16F10 cells were treated with serial concentrations of Maplifa (6.25, 12.5, 25, 50, 100, and 200 μg/mL) for 48 and 72 h. In addition, various concentrations (0, 5, 10, 25, and 50 μM) of ginnalinginnalins A-C for 72 h and the cell viabilities were determined by comparing with the untreated control group. […]

B16F10 cells [2] = assay: Melanin content in B16F10 cells; assay type: cell-based, murine; details: for melanin content compared to control group: 72 h
Experimental: The contents of biosynthesized melanin in melanoma B16F10 cells that treated with ginnalinginnalins A-C at serial concentrations were evaluated by comparing with the control group. The melanin content was determined using a modification of the method described by Liang and Ho. Briefly, B16F10 cells (5×10^4 cells/well) were first seeded in 24-well plates for 24 h and then medium was changed with new DMEM medium containing test samples of various concentrations. After 72 h incubation, the cells were harvested through trypsinization and washed with phosphate-buffered saline (PBS) twice. Then cells were lyzed with 1 N NaOH containing 10% DMSO and heated at 80° C. for 1 h. After samples cooled down to room temperature, the amount of melanin content was spectrophotometrically measured at 400 nm.

MITF = assay: mRNA expression by real-time PCR in B16F10 cells; assay type: cell-based, murine; details: 10 μM, 48 h and 72 h
Experimental: (§1) Melanin biosynthesis involves multi-step pathways. In order to determine the molecular mechanisms of inhibitory effects of ginnalins on melanin synthesis, expression levels of melanogenesis related genes, including MITF, TYR, TRP-1 and TRP-2, in B16F10 cells were analyzed by using RT-PCR. The B16F10 cells were planted in 6-well plates at a density of 2.0×10^5 cells/well. After being incubated for 24 h, cells were treated with 2 or 10 μM of ginnalins for 48 or 72 h. Total RNA was isolated from cells using TRIzol reagent (Invitrogen) according to the manufacturer's instructions. One microgram of total RNA was converted to single-stranded cDNA using oligo(dT)18 primers, and mRNA levels were quantified by quantitative real-time PCR using a Roche LightCycler detection system (Roche Applied Science, Mannheim, Germany). Samples were run by using SYBR Green and compared with levels of b2m rRNA as a reference housekeeping gene. Quantitative real-time PCR conditions were optimized for each gene using appropriate forward and reverse primers. The primers used are listed in Supplemental material. All oligonucleotides were synthesized by Invitrogen Inc., CA.

TYR = assay: mRNA expression by real-time PCR in B16F10 cells; assay type: cell-based, murine; details: 10 μM; for TYR mRNA expression: 48 h and 72 h
Experimental: as §1

TRP-1 = assay: mRNA expression by real-time PCR in B16F10 cells; assay type: cell-based, murine; details: 10 μM, 48 h and 72 h
Experimental: as §1

TRP-2 [3] = assay: mRNA expression by real-time PCR in B16F10 cells; assay type: cell-based, murine; details: 10 μM, 48 h and 72 h
Experimental: as §1

TRP-2 [4] = assay: Protein expression by Western blot in B16F10 cells; assay type: cell-based, murine; details: 10 μM, 72 hours
Experimental: Furthermore, the regulation of ginnalins on the protein expressions of melanogenesis related enzymes in B16F10 cells were evaluated by using Western blot. Expressions of melanin biosynthesis-related proteins, including MITF, TYR, TRP-1 and TRP-2 expression in B16F10 cells were measured by western blot. After incubation with ginnalins for 72 h, proteins from cells were resolved by SDS-PAGE and then transferred to polyvinylidene fluoride membrane. The membrane was blocked with 5% nonfat dry milk in Tris-buffered saline with Tween followed by incubation with primary antibodies overnight. Bands were visualized on X-ray film using an ECL detection kit (Amersham Biosciences, Piscataway, N.J.). A list of antibody, source, and dilution is listed in Supplementary material.

- IC50 (mushroom tyrosinase): 63 ± 0.3 µM
Compound: OC[C@H]1O[C@@H](Oc2ccc(O)cc2)[C@H](O)[C@@H](O)[C@@H]1O [Arbutin, reference compound]

- IC50 (mushroom tyrosinase): 182 µM
Compound: O=C(OC[C@H]1OC[C@H](OC(=O)c2cc(O)c(O)c(O)c2)[C@@H](O)[C@@H]1O)c1cc(O)c(O)c(O)c1 [Ginnalin A]
- B16F10 cell viability (B16F10 cells [1]; 25 μM): 87.0%
- B16F10 cell viability (B16F10 cells [1]; 50 μM): 89.5%
- toxicity to B16F10 cells (B16F10 cells [1]; low concentrations (5 and 10 μM)): non-toxic
- melanin content compared to control group (B16F10 cells [2]; 25 μM): 79.1%
- effect on melanin content (B16F10 cells [2]; 50 μM): clearly reduced
- melanin content compared to control group (B16F10 cells [2]; 50 μM): 56.7%
- MITF mRNA expression (MITF): significantly reduced
- TYR mRNA expression (TYR): significantly reduced
- TRP-1 mRNA expression (TRP-1): significantly reduced
- TRP-2 mRNA expression (TRP-2 [3]): significantly reduced
- decrease of TRP-2 protein expression (TRP-2 [4]): 87.9%

- IC50 (mushroom tyrosinase): 1050 µM
Compound: O=C(OC[C@H]1OC[C@H](O)[C@@H](O)[C@@H]1O)c1cc(O)c(O)c(O)c1 [Ginnalin B]
- anti-melanogenic effects in B16F10 cells (B16F10 cells [2]): only minor anti-melanogenic effects
- melanin content compared to control group (B16F10 cells [2]; 25 μM): 90.0%
- melanin content compared to control group (B16F10 cells [2]; 50 μM): 90.0%
- MITF mRNA expression (MITF): significantly decreased
- decrease of TYR mRNA expression (TYR; 48 hours): 10.0%
- decrease of TYR mRNA expression (TYR; 72 hours): 7.5%
- TRP-1 mRNA expression (TRP-1): significantly decreased
- TRP-2 mRNA expression (TRP-2 [3]): significantly decreased
- decrease of TRP-2 protein expression (TRP-2 [4]): 92.0%

- IC50 (mushroom tyrosinase): 858 µM
Compound: O=C(O[C@H]1CO[C@H](CO)[C@@H](O)[C@@H]1O)c1cc(O)c(O)c(O)c1 [Ginnalin C]
- anti-melanogenic effects in B16F10 cells (B16F10 cells [2]): only minor anti-melanogenic effects
- melanin content compared to control group (B16F10 cells [2]; 25 μM): 89.7%
- melanin content compared to control group (B16F10 cells [2]; 50 μM): 68.8%
- MITF mRNA expression (MITF): significantly down-regulated
- TYR mRNA expression (TYR): only slightly decreased
- TRP-1 mRNA expression (TRP-1): did not reduce
- TRP-2 mRNA expression (TRP-2 [3]): only slightly decreased
- decrease of TRP-2 protein expression (TRP-2 [4]): 69.5%
